Reference: PubChem BioAssay AID463229 (Broad Institute, 2010)
Where “and” joins values, the source holds several entries; their conditions need not be identical. Equal values may be shown once. Calls of active or inactive are those of the source.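 The calls were made as follows: active = compounds raising the signal whose fitted half-maximal concentration is at or below their top tested dose (cut at about 25 µM in these data); inconclusive = flat fit at 30 to 70% activity, or a poor fit; inactive = the rest.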

The compounds below were run on INS-1E rat beta cells, no cytokines, CellTiter-Glo ATP, 48 h (assay: ATP level change in INS-1E without cytokines, dose response, counter-screen for beta-cell apoptosis protection project, INS-1E rat cells, ATP luminescence, cherry pick (AID 463229)).

Row | SMILES | AC50
1 | Cn1nc([N+](=O)[O-])nc1Sc1cccc2cccnc12 | 7.81 µM
2 | Cc1occc(=O)c1OC(=O)Nc1ccc(Cl)c(Cl)c1 | 7.74 µM
3 | Cc1sc2ncnc(N/N=C/c3ccccc3O)c2c1C | 3.03 µM
4 | Clc1ccc(C(Cn2ccnc2)OCc2csc3c(Cl)cccc23)c(Cl)c1 (stereo not given) | 14.6 µM
5 | COc1ccc(C(=O)Nc2ccccc2C(=O)N/N=C/c2ccccn2)cc1OC | 8.14 µM
6 | Cc1ccccc1C(=O)N1CCN(c2ccc(NC(=O)c3cccnc3)cc2)CC1 | 11.7 µM
7 | COc1ccc(-n2c(=S)[nH]c3cc(C(=O)Nc4ccccc4OC)ccc3c2=O)cc1 | 8.24 µM
8 | NC(=NCCCCCCN=C(N)/N=C(\N)Nc1ccc(Cl)cc1)/N=C(\N)Nc1ccc(Cl)cc1 | 5 µM and 5.71 µM
9 | COc1ccccc1NC(=O)c1cc2cc(Br)ccc2cc1O | 7.8 µM
10 | CCOc1ccc(S(=O)(=O)N(C)c2ccc(OCC(=O)Nc3nc4ccccc4s3)cc2)cc1 | 7.9 µM
11 | C/C(=N\NC(=O)c1nnn(-c2nonc2N)c1CN1CCc2ccccc21)c1ccccc1O | 11.4 µM
12 | C/C(=N/NC(=O)c1ccc(C(C)(C)C)cc1)c1ccccn1 | 2.1 µM
13 | Cc1cccc(NC2=C/C(=N/S(=O)(=O)c3cccs3)c3ccccc3C2=O)c1 | 3.97 µM
14 | Cc1ccc(-c2nn(-c3ccccc3)cc2/C=N/NC(=O)c2ccc3c(c2)OCO3)cc1 | 5.63 µM
15 | O=C(Cn1c(-c2ccccc2)c[n+]2ccsc12)c1ccc([N+](=O)[O-])cc1 | 6.04 µM
16 | Cc1sc2ncnc(N3CCN(CCOc4ccc(Cl)cc4)CC3)c2c1C | 4.74 µM
17 | Cc1ccc2c(c1)c(/C=C/c1cc[n+](C)cc1)c(C)n2C | 3.97 µM
18 | CCCCC(=O)NC(c1ccc(N(CC)CC)cc1)c1ccc2cccnc2c1O (stereo not given) | 1.37 µM
19 | COc1cc(C(=O)N/N=C(\C)c2ccccn2)cc(OC)c1OC | 10.6 µM
20 | Nc1c(Cl)ncnc1N/N=C/c1ccc2ccccc2n1 | 4.38 µM
21 | O=C(c1cc(-c2ccccc2Cl)nc2ccccc12)N1CCN(c2ccccn2)CC1 | 4.44 µM
22 | COc1ccc(/C=N/Nc2cc(C)nc3ccc(Br)cc23)cc1 | 7.02 µM
23 | C/C(=N\NC(=O)c1cc(-c2cccnc2)nc2ccccc12)c1ccccc1O | 5.74 µM

Row | SMILES | AC50
24 | COc1cc2ccccc2cc1C(=O)Nc1sc2c(c1C(N)=O)CCN(C(C)C)C2 | 9.16 µM
25 | Cc1ccc(C(=O)Nc2nc(-c3ccccn3)cs2)s1 | 6.66 µM
26 | COc1ccccc1NC(=O)c1nc(S(=O)(=O)Cc2ccccc2)ncc1Cl | 8.64 µM
27 | COc1ccc(CNCCC(c2ccc(OC(C)C)cc2)c2ccccc2OC)cc1 (stereo not given) | 12.2 µM
28 | CCN(CC)CCN1c2ccccc2Sc2ccc3ccccc3c21 | 18.1 µM
29 | CCOc1ccc2nc(NC(=O)c3ccccn3)sc2c1 | 6.67 µM
30 | O=C(/C=C/c1ccccc1)NC(=S)NNC(=O)c1cnccn1 | 5.91 µM
31 | Cc1ccc(C)c(S(=O)(=O)N2CCN(Cc3ccc(O)c4ncccc34)CC2)c1 | 5.74 µM
32 | N=c1c2c(n(Cc3ccc(Cl)c(Cl)c3)c3c1CCC3)CCCC2 | 3.57 µM
33 | CN(C)S(=O)(=O)c1cccc(N=C2NN=C(c3ccccc3)CS2)c1 | 4.4 µM
34 | COc1ccc(/C=C2\CN(Cc3ccccc3)C/C(=C\c3ccc(OC)c(O)c3)C2=O)cc1O | 4.75 µM
35 | NC1=C(Br)C(=O)c2ccccc2C1=O | 18.2 µM
36 | Cc1c(/C=N/Nc2nc3ccccc3[nH]2)c2ccccc2n1C | 6.36 µM
37 | Oc1cccc(/C=N/Nc2ccc(Cl)nn2)c1O | 4.69 µM
38 | CC(=O)/C=C1\N(C)c2ccc(C)cc2C1(C)C | 7.3 µM
39 | O=C(c1ccco1)N1N=C(c2ccc(Br)cc2)CC1c1ccco1 (stereo not given) | 24.2 µM
40 | O=S(=O)([N-]c1nc2ccccc2nc1-[n+]1ccc(Cc2ccccc2)cc1)c1ccc(Br)s1 | 12.9 µM
41 | CCN(CC)c1ccc(/C=N/NC(=O)CCC(=O)NCc2ccccc2)c(O)c1 | 7.22 µM
42 | CCCCC(CC)CN1C(=O)/C(=C/c2ccncc2)SC1=S (stereo not given) | > 26 µM (inactive)
43 | Cc1cc(C(=O)CSc2nc3ccccc3c(=O)n2C)c(C)n1Cc1ccc2c(c1)OCO2 | 2.07 µM
44 | COc1ccc(Nc2ccc3c(c2)=NC2(CCCCC2)[N+]=3[O-])cc1 | 7.8 µM
45 | CC(C)=CCc1cc2c(=O)c3c(O)c4c(cc3oc2c(O)c1O)OC(C)C4(C)C (stereo not given) | 7.43 µM
